Laboratory results as given in patent publication EP0103381B1, “Substituted anthra(1,9-cd)pyrazol-6(2H)-ones” (WARNER-LAMBERT COMPANY, priority 1982, dated 1984).
Like-named read-outs stand apart in the source and are kept apart here.

Assays:
Streptococcus faecalis = assay: agar plate paper-disc inhibition zone screening; assay type: cell-based; conditions: Enterococcus faecalis, read-out: Inhibition Zone Diameter mm (Dose mg/ml) S. Faecalis
Procedure, shortened: (§1)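 Read-out: diameter (mm) of the inhibition zone around 12.7 mm paper discs after overnight (18-20 h) incubation at 37°C. Discs carried compound at 3,000-10 mcg/ml in alcohol, DMSO or DMF, final solvent <10%. Seeded agar trays used saline-suspended cells adjusted to 20-35% transmittancy.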

Aerobacter aerogenes = assay: agar plate paper-disc inhibition zone screening; assay type: cell-based; conditions: Klebsiella aerogenes, read-out: Inhibition Zone Diameter mm (Dose mg/ml) A. Aerogenes
Procedure, shortened: as §1

Bacillus subtilis = assay: agar plate paper-disc inhibition zone screening; assay type: cell-based; conditions: read-out: Inhibition Zone Diameter mm (Dose mg/ml) B. Subtilis
Procedure, shortened: as §1

Escherichia coli = assay: agar plate paper-disc inhibition zone screening; assay type: cell-based; conditions: read-out: Inhibition Zone Diameter mm (Dose mg/ml) E. Coli
Procedure, shortened: as §1

[1] = system: lymphocytic leukemia P388; assay: in vivo lymphocytic leukemia P388 test; parameters: species or system mice; conditions: Mus musculus, P388, ip, 720 h; for response vs control in vivo at 25 mg/kg: P388, Dose 25 mg/kg intraperitoneally
Procedure, shortened: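 CD2F mice (6–7 per group) were inoculated intraperitoneally with P388 leukemia ascitic cells. Compounds were then given i.p. as two doses four days apart at various levels. Survival over 30 days was expressed as treated/control time ratio, efficacy criterion T/C×100 >125%.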

Penicillium avellaneum = assay: agar plate paper-disc inhibition zone screening; assay type: cell-based; conditions: Hamigera avellanea, read-out: Inhibition Zone Diameter mm (Dose mg/ml) P. Avellaneum
Procedure, shortened: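 Mycelia and spores from a six-day 28°C agar culture, suspended in saline with 0.05% Tween 80 at 20% transmittancy, were seeded into molten agar trays. Compounds at 3,000, 1,000, 500, 100 and 10 mcg/ml (solvent <10%) were applied on 12.7 mm paper discs. After at least 20-24 h incubation, inhibition zone diameter was measured in mm.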

[2] = system: HCT-8 (human colon adenocarcinoma) cells; assay: in vitro activity against human colon adenocarcinoma (HCT-8), cell count; assay type: cell-based; conditions: HCT-8 human colon adenocarcinoma cells, 60-65 hrs incubation with compound, Coulter counter cell count as percentage of controls; read-out: ID50 (the source's name)
Experimental: HCT-8 (human colon adenocarcinoma) cells are trypsinized using Trypsin-EDTA. A single cell suspension is achieved by passing the cells through a 26 gauge needle with a 20 cc syringe. A cell suspension is prepared using RPMI 1640 growth medium (available from Gibco Laboratories) +10% fetal calf serum +50 µg/ml garamycin with a cell concentration of approximately 30,000 cells/ml. The cell suspension is dispensed in Linbro 24-well plates; 1 ml/well. The plates are incubated for approximately 48 hrs at 37°C in a 5% C02 atmosphere. At this time test compounds are added in the appropriate concentration. Five µl of the 200 µg/ml stock solution is added to each well in a primary test. Ten pl of the appropriate dilution is added to each well for a titration test. The plates are reincubated an additional 60-65 hrs at 37°C in a 5% C02 atmosphere. The test is read by lysing the cells using a mix of cationic surfactant, glacial acetic acid and sodium chloride. […] of the lysed cell suspension from each well is added to 8 ml of diluent. Each sample is read with a Coulter counter (ZBI model). The activity of each sample is measured as a percentage of the controls and the data is reported as ID50, that is the molar quantity of drug required to kill 50% of the tumor cells.

[3] = P388, Dose 6.25 mg/kg intraperitoneally, two single doses four days apart, read-out: T/C × 100 (Percent)
[4] = P388, Dose 12.5 mg/kg intraperitoneally, two single doses four days apart, read-out: T/C × 100 (Percent)
[5] = P388, Dose 50 mg/kg intraperitoneally, two single doses four days apart, read-out: T/C × 100 (Percent)
[6] = P388, Dose 100 mg/kg intraperitoneally, two single doses four days apart, read-out: T/C × 100 (Percent)
[7] = two single doses four days apart, read-out: T/C × 100 (Percent)

Compound `O=C1c2c(O)ccc(O)c2-c2nn(CCO)c3ccc(NCCNCCO)c1c23` [Example 36, 5-[[2-[(2-Hydroxyethyl)amino]ethyl]amino]-7,10-dihydroxy-2-(2-hydroxyethyl)anthra[1,9-cd]pyrazol-6(2H)- . one] has a zone of inhibition at 3000 µg/mL (Streptococcus faecalis; Dose 3.0 mg/ml) of 0 mm, a zone of inhibition at 3000 µg/mL (Aerobacter aerogenes; Dose 3.0 mg/ml) of 0 mm and a zone of inhibition at 3000 µg/mL (Bacillus subtilis; Dose 3.0 mg/ml) of 17 mm. The zone of inhibition at 3000 µg/mL (Escherichia coli; Dose 3.0 mg/ml) was 0 mm, the response vs control in vivo at 6.25 mg/kg [1, 3] was 143% and the response vs control in vivo at 12.5 mg/kg [1, 4] was 158%. The response vs control in vivo at 50 mg/kg [1, 5] was 163%, the response vs control in vivo at 100 mg/kg [1, 6] was 172% and the zone of inhibition at 3000 µg/mL (Penicillium avellaneum; Dose 3.0 mg/ml) was 0 mm.

Compound `NCCCNc1ccc2c3c(nn2CCNCCO)-c2c(O)ccc(O)c2C(=O)c13` [Example 58, 5-[(3-Aminopropyl)amino]-7,10-dihydroxy-2-[2-[(2-hydroxyethyl)amino]ethyl]anthra[1,9-cd]pyrazol-6(2H)-one] has a zone of inhibition at 3000 µg/mL (Streptococcus faecalis) of 0 mm, a zone of inhibition at 3000 µg/mL (Aerobacter aerogenes) of 14 mm and a zone of inhibition at 3000 µg/mL (Bacillus subtilis) of 0 mm. For the same compound, the zone of inhibition at 3000 µg/mL (Escherichia coli) was 15 mm, the response vs control in vivo at 3.12 mg/kg ([1]; read-out: T/C × 100 (Percent), P388, Dose 3.12 mg/kg intraperitoneally, two single doses four days apart) was 165% and the response vs control in vivo at 6.25 mg/kg ([1]; read-out: T/C × 100 (Percent), P388, Dose 6.25 mg/kg intraperitoneally, two single doses four days apart) was 165%. It also gave a response vs control in vivo at 12.5 mg/kg ([1]; read-out: T/C × 100 (Percent), P388, Dose 12.5 mg/kg intraperitoneally, two single doses four days apart) of 177%, a response vs control in vivo at 50 mg/kg ([1]; read-out: T/C × 100 (Percent), P388, Dose 50 mg/kg intraperitoneally, two single doses four days apart) of 254% and a response vs control in vivo at 100 mg/kg ([1]; read-out: T/C × 100 (Percent), P388, Dose 100 mg/kg intraperitoneally, two single doses four days apart) of 131%. The zone of inhibition at 3000 µg/mL (Penicillium avellaneum) was 0 mm.

Work on `CCN(CC)CCn1nc2c3c(c(NCCNC)ccc31)C(=O)c1c(O)ccc(O)c1-2` yielded an IC50 [2] of 120 nM.

`CNCCNc1ccc2c3c(nn2CCNCCO)-c2c(O)ccc(O)c2C(=O)c13` was tested, and the IC50 [2] was 400 nM.

For `CCN(CC)CC(O)Cn1nc2c3c(c(NCCNCCO)ccc31)C(=O)c1c(O)ccc(O)c1-2` (stereo not drawn), the IC50 [2] was 690 nM.

Compound `CN(C)CCCn1nc2c3c(c(NCCN)ccc31)C(=O)c1c(O)ccc(O)c1-2` [Example 94, 5-[(2-Aminoethyl)amino]-2-[3-(dimethylamino)propyl]-7,10-dihydroxyanthra[1,9-cd]pyrazol-6(2H)-one] has a zone of inhibition at 3000 µg/mL (Streptococcus faecalis; Dose 3.0 mg/ml) of 0 mm, a zone of inhibition at 3000 µg/mL (Aerobacter aerogenes; Dose 3.0 mg/ml) of 15 mm and a zone of inhibition at 3000 µg/mL (Bacillus subtilis; Dose 3.0 mg/ml) of 0 mm. For the same compound, the zone of inhibition at 3000 µg/mL (Escherichia coli; Dose 3.0 mg/ml) was 15 mm, the response vs control in vivo at 3.12 mg/kg ([1]; P388, Dose 3.12 mg/kg intraperitoneally, two single doses four days apart, read-out: T/C × 100 (Percent)) was 191% and the response vs control in vivo at 6.25 mg/kg [1, 3] was 186%. It also gave a response vs control in vivo at 12.5 mg/kg [1, 4] of 224% and a zone of inhibition at 3000 µg/mL (Penicillium avellaneum; Dose 3.0 mg/ml) of 0 mm.

`CCN(CC)CCNc1ccc2c3c(nn2CC(O)CN(CC)CC)-c2c(O)ccc(O)c2C(=O)c13` (stereo not drawn) [Example 44] gave a zone of inhibition at 3000 µg/mL (Streptococcus faecalis; Dose 3.0 mg/ml) of 14 mm, a zone of inhibition at 3000 µg/mL (Aerobacter aerogenes; Dose 3.0 mg/ml) of 14 mm and a zone of inhibition at 3000 µg/mL (Bacillus subtilis; Dose 3.0 mg/ml) of 15 mm. For the same compound, the zone of inhibition at 500 µg/mL (Escherichia coli; Dose 0.5 mg/ml) was 15 mm, the response vs control in vivo at 12.5 mg/kg [1, 4] was 128% and the response vs control in vivo at 25 mg/kg [1, 7] was 131%. It also gave a response vs control in vivo at 50 mg/kg [1, 5] of 131% and a zone of inhibition at 3000 µg/mL (Penicillium avellaneum; Dose 3.0 mg/ml) of 0 mm.

`NCCCCCNc1ccc2c3c(nn2CCNCCO)-c2c(O)ccc(O)c2C(=O)c13` [Example 60, 5-[(5-Aminopentyl)amino]-7,10-dihydroxy-2-[2-[(2-hydroxyethyl)amino]ethyl]anthra[1,9-cd]pyrazol-6(2H)-one] showed a zone of inhibition at 3000 µg/mL (Streptococcus faecalis; Dose 3.0 mg/ml) of 0 mm, a zone of inhibition at 3000 µg/mL (Aerobacter aerogenes; Dose 3.0 mg/ml) of 0 mm and a zone of inhibition at 3000 µg/mL (Bacillus subtilis; Dose 3.0 mg/ml) of 0 mm. It also gave a zone of inhibition at 3000 µg/mL (Escherichia coli; Dose 3.0 mg/ml) of 14 mm, a response vs control in vivo at 12.5 mg/kg [1, 4] of 127% and a response vs control in vivo at 25 mg/kg [1, 7] of 127%. For the same compound, the response vs control in vivo at 50 mg/kg [1, 5] was 127%, the response vs control in vivo at 100 mg/kg [1, 6] was 150% and the zone of inhibition at 3000 µg/mL (Penicillium avellaneum; Dose 3.0 mg/ml) was 0 mm.

With `CN(C)CCCn1nc2c3c(c(NCCCN)ccc31)C(=O)c1c(O)ccc(O)c1-2` [Example 47, 5-[(3-Aminopropyl)amino]-2-[3-(dimethylamino)propyl]-7,10-dihydroxyanthra[1,9-cd]pyrazol-6(2H)-one] the zone of inhibition at 3000 µg/mL (Streptococcus faecalis; Dose 3.0 mg/ml) was 0 mm, the zone of inhibition at 3000 µg/mL (Aerobacter aerogenes; Dose 3.0 mg/ml) was 14 mm and the zone of inhibition at 3000 µg/mL (Bacillus subtilis; Dose 3.0 mg/ml) was 14 mm. The zone of inhibition at 3000 µg/mL (Escherichia coli; Dose 3.0 mg/ml) was 14 mm, the response vs control in vivo at 12.5 mg/kg [1, 4] was 173% and the response vs control in vivo at 25 mg/kg [1, 7] was 194%. It also gave a zone of inhibition at 3000 µg/mL (Penicillium avellaneum; Dose 3.0 mg/ml) of 0 mm.

Work on `CN(C)CCn1nc2c3c(c(NCCCN)ccc31)C(=O)c1c(O)ccc(O)c1-2` [7,10-(OH)2; (CH2)2NMe2·2HCl; NH(CH2)3NH2] yielded an IC50 [2] of 1100 nM.

For `NCCn1nc2c3c(c(NCCCNCCO)ccc31)C(=O)c1c(O)ccc(O)c1-2`, the IC50 [2] was 280 nM.

Work on `CCN(CC)CC(O)Cn1nc2c3c(c(NCCN)ccc31)C(=O)c1c(O)ccc(O)c1-2` (stereo not drawn) yielded an IC50 [2] of 460 nM.
